For test [1], the target named is p38 MAPKα isoform (MAPK14) (Homo sapiens (Human), UniProt Q16539). Kind of test: p38 MAPKα enzyme inhibition (FRET, Z-LYTE, Method 2). The format is biochemical. In a few lines: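 Z-LYTE FRET: p38 MAPKα (80 ng/mL for Method 1, 200 ng/mL for Method 2, pre-dilution) preincubated 2 hr RT with compound (4–0.004 μg/mL solutions), activity read via MAPKAP-K2 phosphorylation after 1 hr RT and 1 hr protease development. Coumarin/fluorescein ratio gives phosphorylation; % inhibition versus uninhibited control, IC50 from concentration-response curve.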
Chain of p38 MAPKα isoform (MAPK14) (Q16539 whole entry, canonical isoform): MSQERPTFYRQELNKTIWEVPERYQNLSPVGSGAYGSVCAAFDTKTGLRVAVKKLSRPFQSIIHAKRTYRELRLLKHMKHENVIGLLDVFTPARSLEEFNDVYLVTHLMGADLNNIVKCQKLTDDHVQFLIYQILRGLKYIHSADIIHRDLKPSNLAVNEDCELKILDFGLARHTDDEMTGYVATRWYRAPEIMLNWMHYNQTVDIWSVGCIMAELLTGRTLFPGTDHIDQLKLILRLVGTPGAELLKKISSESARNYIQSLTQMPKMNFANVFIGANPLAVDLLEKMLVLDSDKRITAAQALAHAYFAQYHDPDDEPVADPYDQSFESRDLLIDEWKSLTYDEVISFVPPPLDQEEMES

The next test addresses Syk (Homo sapiens (Human), UniProt P43405). Kind of test: Syk enzyme inhibition (FRET, Z-LYTE). It counts as biochemical. In a few lines:
(§1)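 Enzyme (c-Src 3000 ng/mL, Syk 2000 ng/mL, as added solutions) was preincubated with compound for 2 hr at RT, then FRET peptide and ATP (added solution 800 μM for c-Src, 60 μM for Syk) for 1 hr. Protease development 1 hr; coumarin/fluorescein emission ratio gave % inhibition, IC50 from concentration-response.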

The target of another test is c-Src (Homo sapiens (Human), UniProt P12931). Kind of test: c-Src enzyme inhibition (FRET, Z-LYTE). It counts as biochemical. In a few lines:
as §1

Test [2] concerns PBMCs. Kind of test: Cell mitosis assay in PBMCs (assay g). It counts as cell-based. Conditions: Homo sapiens, PBMC, test compound 5 μg/mL. The method, boiled down:
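Human PBMCs from healthy donors, stimulated with 2% PHA for 48 hr, then exposed to test compounds for 20 hr, with demecolcine (0.1 μg/mL) added 2 hr before harvest. Cells fixed/permeabilised, stained for phospho-histone 3 and propidium iodide, and read by flow cytometry gated on lymphocytes. % mitosis inhibition vs 0.5% DMSO vehicle.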

The next test addresses GSK 3α (Homo sapiens (Human), UniProt P49840). Kind of test: GSK 3α enzyme inhibition (FRET, Z-LYTE, Method 2). Conditions: read-out: IC50 Values for Enzyme Inhibition, GSK3α. The format is biochemical. In a few lines: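 Human GSK3α (500 ng/mL) preincubated with compound (4, 0.4, 0.04 or 0.004 μg/mL) at RT for 2 h (Method 1) or 105 min (Method 2). Then FRET peptide (8 μM) and ATP (40 μM) added for 1 h, followed by protease development for 1 h. IC50 from the coumarin/fluorescein emission ratio relative to uninhibited control.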

The test system of test [3] is PBMCs. As to the kind of experiment: LPS-induced IL-8 release in PBMC cells (assay b). Conditions: Homo sapiens, PBMC; LPS-stimulated PBMCs; read-out: IC50 Values for Inhibition of Cytokine Release, PBMCs IL-8. It counts as cell-based, human. In a few lines:
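Human PBMCs from healthy donors, isolated by density gradient, were pretreated with compound for 2 h and then stimulated with 1 ng/mL LPS (E. coli 0111:B4) for 24 h at 37° C, 5% CO2. Supernatant IL-8 and TNFα were measured by sandwich ELISA, and IC50 was taken from the dose-response curve.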

Test [4] deals with PBMCs. Kind of test: IFN gamma release in CD3/CD28 stimulated PBMC cells (assay c). Conditions: Homo sapiens, read-out: IC50 Values for Inhibition of Cytokine Release, PBMCs IFNγ. The format is cell-based. The procedure:
(§2) PBMCs from healthy subjects are separated from whole blood using a density gradient (Lymphoprep, Axis-Shield Healthcare). Cells are added to a 96 well plate pre-coated with a mixture of CD3/CD28 monoclonal antibodies (0.3 μg/mL eBioscience and 3 μg/mL BD Pharmingen respectively). Compound at the desired concentration is then added to the wells and the plate left for 3 days under normal tissue culture conditions. Supernatants are harvested and IL-2 and IFN gamma release determined by Sandwich ELISA (Duo-set, R&D System). The IC50 is determined from the dose response curve.

Test [5] relates to PBMCs. As to the kind of experiment: IL-2 release in CD3/CD28 stimulated PBMC cells (assay c). It counts as cell-based. Conditions: Homo sapiens, read-out: IC50 Values for Inhibition of Cytokine Release, PBMCs IL-2. On the procedure:
as §2

The subject of a further test is d-U937 cells. Kind of test: Accumulation of β catenin in d-U937 cells (assay m). It counts as cell-based, human. Conditions: percentage relative to Reference Compound at 1 μg/mL. The method, boiled down:
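PMA-differentiated (100 ng/mL, 48–72 hr) human U937 macrophage-type cells treated with test compound or vehicle for 18 hr. β-catenin measured by in-cell ELISA (anti-β-catenin, HRP secondary, TMB, OD450–655). Signal corrected for cell number by dividing by crystal violet OD595.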

Chain of GSK 3α (P49840 whole entry): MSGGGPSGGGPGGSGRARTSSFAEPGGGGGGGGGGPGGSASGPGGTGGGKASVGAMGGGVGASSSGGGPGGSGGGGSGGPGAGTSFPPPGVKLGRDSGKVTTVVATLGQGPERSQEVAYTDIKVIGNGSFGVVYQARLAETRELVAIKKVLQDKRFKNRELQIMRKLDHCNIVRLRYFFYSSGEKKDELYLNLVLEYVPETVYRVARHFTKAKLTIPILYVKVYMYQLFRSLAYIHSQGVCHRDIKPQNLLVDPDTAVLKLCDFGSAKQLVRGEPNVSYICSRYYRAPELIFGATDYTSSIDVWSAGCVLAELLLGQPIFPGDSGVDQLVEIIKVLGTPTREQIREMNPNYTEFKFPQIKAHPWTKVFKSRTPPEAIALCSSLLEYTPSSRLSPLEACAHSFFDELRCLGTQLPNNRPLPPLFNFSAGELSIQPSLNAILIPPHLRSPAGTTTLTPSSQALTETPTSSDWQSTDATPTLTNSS
Chain of c-Src (P12931 whole entry, looked up): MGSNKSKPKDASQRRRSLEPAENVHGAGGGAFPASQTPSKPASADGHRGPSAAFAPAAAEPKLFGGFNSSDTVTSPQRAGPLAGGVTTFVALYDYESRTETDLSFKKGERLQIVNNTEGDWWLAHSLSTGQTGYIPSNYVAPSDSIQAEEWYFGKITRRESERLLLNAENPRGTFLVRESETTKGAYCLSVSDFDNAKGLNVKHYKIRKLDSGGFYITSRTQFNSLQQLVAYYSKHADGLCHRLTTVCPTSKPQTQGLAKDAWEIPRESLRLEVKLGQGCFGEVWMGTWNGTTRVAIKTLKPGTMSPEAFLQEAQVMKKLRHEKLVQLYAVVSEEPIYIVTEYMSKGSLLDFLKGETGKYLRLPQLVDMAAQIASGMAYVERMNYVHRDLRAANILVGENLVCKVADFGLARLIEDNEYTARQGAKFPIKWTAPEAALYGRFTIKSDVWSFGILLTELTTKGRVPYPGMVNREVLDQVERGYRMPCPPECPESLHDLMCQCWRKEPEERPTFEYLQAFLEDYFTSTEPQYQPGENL

As to `COCCOCCOCCNC(=O)c1cc(Nc2cc(Oc3ccc(NC(=O)Nc4cc(C(C)(C)C)cc(S(C)(=O)=O)c4OC)c4ccccc34)ccn2)cc(OC)c1` [38(ab), 3-((4-((4-(3-(5-(tert-Butyl)-2-methoxy-3-(methylsulfonyl)phenyl)ureido)naphthalen-1-yl)oxy)pyridin-2-yl)amino)-5-methoxy-N-(2-(2-(2-methoxyethoxy)ethoxy)ethyl)benzamide], the IC50 – broadly, the concentration that inhibits the measured activity by half – in test [1] was 50 nM; at Syk it was above 1200 nM; against c-Src, 61 nM; on GSK 3α, 4830 nM; in the test on PBMCs [3], 1.4 nM; with PBMCs [4], 10.9 nM. For the same molecule, the IC50 with PBMCs [5] was 317 nM. Further, the inhibition (commonly the change of the read-out against control, counted positive when it falls) at 5 µg/mL in the test with PBMCs [2] is 30.7%.
In the case of `COc1cc(Nc2cc(Oc3ccc(NC(=O)Nc4cc(C(C)(C)C)cc(CC(N)=O)c4OC)c4ccccc34)ccn2)cc(S(=O)(=O)C2CC2)c1` [38(ad), 2-(5-(tert-Butyl)-3-(3-(4-((2-((3-(cyclopropylsulfonyl)-5-methoxyphenyl)amino)pyridin-4-yl)oxy)naphthalen-1-yl)ureido)-2-methoxyphenyl)acetamide], the IC50 was 87 nM in test [1]; above 1380 nM against Syk; 155 nM on c-Src; 11000 nM at GSK 3α; 2.2 nM with PBMCs [3]; 10.9 nM with PBMCs [4]. The IC50 in the test on PBMCs [5] was determined as 214 nM. For the same molecule, the inhibition at 5 µg/mL in the test on PBMCs [2] amounted to 14.5%.
Turning to `COc1cc(C#N)cc(Nc2cc(Oc3ccc(NC(=O)Nc4cc(C(C)(C)C)cc(CC(N)=O)c4OC)c4ccccc34)ccn2)c1` [38(ah), 2-(5-(tert-Butyl)-3-(3-(4-((2-((3-cyano-5-methoxyphenyl)amino)pyridin-4-yl)oxy)naphthalen-1-yl)ureido)-2-methoxyphenyl)acetamide], the concentration for half-maximal inhibition (IC50) in test [1] is 619 nM; at Syk it was above 1550 nM; against c-Src it was 311 nM; on GSK 3α, 13900 nM; with PBMCs [3], 2.3 nM; in the test with PBMCs [4], 10.6 nM. In addition, the IC50 in the test with PBMCs [5] stood at 350 nM. In the test with PBMCs [2], the inhibition at 5 µg/mL was determined as 6.7%.
Regarding `COc1cc(Nc2cc(Oc3ccc(NC(=O)Nc4cc(C(C)(C)C)cc(CC(N)=O)c4OC)c4ccccc34)ccn2)cc(S(=O)(=O)N(C)C)c1` [38(aj), 2-(5-(tert-Butyl)-3-(3-(4-((2-((3-(N,N-dimethylsulfamoyl)-5-methoxyphenyl)amino)pyridin-4-yl)oxy)naphthalen-1-yl)ureido)-2-methoxyphenyl)acetamide], the 50% inhibitory concentration (IC50) in [1] was 295 nM; at Syk, above 1380 nM; against c-Src it was 220 nM; at GSK 3α, above 13200 nM; with PBMCs [3] it was 2.1 nM; with PBMCs [4], 9.6 nM. Besides, the IC50 in the test with PBMCs [5] came out at 340 nM. Further, the inhibition at 5 µg/mL in the test with PBMCs [2] is -1%.
As for `COc1cc(Nc2cc(Oc3ccc(NC(=O)Nc4cc(C(C)(C)C)cc(S(C)(=O)=O)c4OC)c4ccccc34)ccn2)cc(C(=O)NCCN2CC[S+]([O-])CC2)c1` [38(an), 3-((4-((4-(3-(5-(tert-Butyl)-2-methoxy-3-(methylsulfonyl)phenyl)ureido)naphthalen-1-yl)oxy)pyridin-2-yl)amino)-5-methoxy-N-(2-(1-oxidothiomorpholino)ethyl)benzamide], the IC50 in [1] was 48 nM; against Syk, 99 nM; at c-Src it was 24 nM; at GSK 3α, 3600 nM; in the test on PBMCs [3] it was 3.8 nM; in the test on PBMCs [4] it was 8.2 nM. The IC50 in the test on PBMCs [5] was 81.8 nM. Besides, the inhibition at 5 µg/mL in the test on PBMCs [2] was determined as 30.1%.
Take `COc1c(NC(=O)Nc2ccc(Oc3ccnc(NCc4ccccc4)n3)c3ccccc23)cc(C(C)(C)C)cc1P(C)(C)=O` [38(g), 1-(4-((2-(Benzylamino)pyrimidin-4-yl)oxy)naphthalen-1-yl)-3-(5-(tert-butyl)-3-(dimethylphosphoryl)-2-methoxyphenyl)urea]: the concentration for half-maximal inhibition (IC50) in test [1] came out at 9 nM; on GSK 3α, 2370 nM; in the test with PBMCs [3], 3.3 nM; in the test on PBMCs [4] it was 22.5 nM; in the test on PBMCs [5] it was 1600 nM. Also, in the test with PBMCs [2], the inhibition at 5 µg/mL was found to be 28.8%. In addition, the “% β-catenin induction” value in the test with d-U937 cells (test compound 1 μg/mL) turned out to be 4.5%; in the test with d-U937 cells (test compound 5 μg/mL) it was 24.5%; in the test with d-U937 cells (test compound 10 μg/mL) it was 38.0%.
For `COCCOCCOCCNC(=O)c1cc(Nc2cc(Oc3ccc(NC(=O)Nc4cc(C(C)(C)C)cc(CNC(C)=O)c4OC)c4ccccc34)ccn2)cc(OC)c1` [38(y), 3-((4-((4-(3-(3-(Acetamidomethyl)-5-(tert-butyl)-2-methoxyphenyl)ureido)naphthalen-1-yl)oxy)pyridin-2-yl)amino)-5-methoxy-N-(2-(2-(2-methoxyethoxy)ethoxy)ethyl)benzamide], the concentration for half-maximal inhibition (IC50) in test [1] is 21 nM; against Syk, 393 nM; against c-Src, 15 nM; at GSK 3α, 867 nM; in the test with PBMCs [3], 0.5 nM; in the test with PBMCs [4] it was 7.9 nM. Besides, the 50% inhibitory concentration (IC50) in the test on PBMCs [5] came to 28.3 nM. The inhibition at 5 µg/mL in the test on PBMCs [2] was found to be 65.7%.
With `COc1cc(Nc2cc(Oc3ccc(NC(=O)Nc4cc(C(C)(C)C)cc(P(C)(C)=O)c4OC)c4ccccc34)ccn2)cc(S(=O)(=O)N(C)CCCN2CCOCC2)c1` [79(d), 1-(5-tert-Butyl-3-dimethylphosphoryl-2-methoxy-phenyl)-3-[4-[[2-[3-methoxy-5-[methyl(3-morpholinopropyl)sulfamoyl]anilino]-4-pyridyl]oxy]-1-naphthyl]urea], the concentration for half-maximal inhibition (IC50) was 39 nM in test [1]; above 1160 nM against Syk; 218 nM on c-Src; 3940 nM at GSK 3α; 3.9 nM with PBMCs [3]; 14.6 nM with PBMCs [4]. Moreover, the half-maximal inhibitory concentration (IC50) in the test on PBMCs [5] worked out at 624 nM. Moreover, the inhibition at 5 µg/mL in the test with PBMCs [2] was determined as 19.9%.
As to `COc1c(NC(=O)Nc2ccc(Oc3ccnc(Nc4cc(C#N)cc(OCCCN5CCOCC5)c4)c3)c3ccccc23)cc(C(C)(C)C)cc1[S+](C)[O-]` (stereo not drawn) [79(e), 1-(5-tert-Butyl-2-methoxy-3-methylsulfinyl-phenyl)-3-[4-[[2-[3-cyano-5-(3-morpholinopropoxy)anilino]-4-pyridyl]oxy]-1-naphthyl]urea], the half-inhibitory concentration (IC50) in test [1] was 269 nM; against Syk it was above 1190 nM; against c-Src, 81 nM; in the test with PBMCs [3], 4.1 nM; with PBMCs [4] it was 6.9 nM; with PBMCs [5] it was 51.9 nM. Besides, the inhibition at 5 µg/mL with PBMCs [2] was 72.4%.
Consider `COc1cc(Nc2cc(Oc3ccc(NC(=O)Nc4cc(C(C)(C)C)cc(C(=O)NCCN5CCOCC5)c4OC)c4ccccc34)ccn2)cc(C(N)=O)c1` [Example 61, 5-(tert-Butyl)-3-(3-(4-((2-((3-carbamoyl-5-methoxyphenyl)amino)pyridin-4-yl)oxy)naphthalen-1-yl)ureido)-2-methoxy-N-(2-morpholinoethyl)benzamide], for which the IC50 worked out at 211 nM in [1]; 1610 nM at GSK 3α; 1.9 nM with PBMCs [3]; 1.6 nM in the test with PBMCs [4]; 7.8 nM in the test on PBMCs [5]. The inhibition at 5 µg/mL in the test with PBMCs [2] was found to be 68.7%.
On to `COc1cc(Nc2cc(Oc3ccc(NC(=O)Nc4cc(C(C)(C)C)cc(CC(N)=O)c4OC)c4ccccc34)ccn2)ccc1C(=O)NCCN1CCOCC1` [Example 70, 4-((4-((4-(3-(3-(2-Amino-2-oxoethyl)-5-(tert-butyl)-2-methoxyphenyl)ureido)naphthalen-1-yl)oxy)pyridin-2-yl)amino)-2-methoxy-N-(2-morpholinoethyl)benzamide], for which the half-inhibitory concentration (IC50) in test [1] stood at 28 nM; on GSK 3α, 2280 nM; in the test with PBMCs [3], 2.3 nM; in the test with PBMCs [4], 11.1 nM; in the test with PBMCs [5], 98.1 nM. The inhibition at 5 µg/mL with PBMCs [2] turned out to be 62.8%.

The record behind these values is patent US9890185B2, “Urea derivatives useful as kinase inhibitors” (Respivert Limited, priority 2013, dated 2018).
